Data as given in patent publication US12478624B2, “Heterocyclic derivatives, pharmaceutical compositions and their use in the treatment or amelioration of cancer” (Tolremo Therapeutics AG, priority 2019, dated 2025).

Columns and labels:
[1] = test system: A375 cells; assay: Assay 1: A375 cells treated with S1152, S1008 and compound, immunofluorescence (sc-365823) signal; type: cell-based; details: 1 μM S1152 + 0.5 μM S1008, one day
Procedure, shortened: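 A375 cells treated one day with 1 μM S1152, 0.5 μM S1008 and compound dose ranges in DMEM/10% FCS, then fixed, permeabilised and immunostained. Green signal normalised to nuclear counterstain (ethidium-type or DAPI), log ratio fitted by four-parameter regression for EC50.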

[2] = test system: OPM-2; assay: Assay 2: multiple myeloma cellular efficacy, PrestoBlue cell proliferation/survival; type: cell-based; details: Homo sapiens, 96 h, OPM-2 cells, 4 days
Procedure, shortened: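 Cells seeded at 10000/well and exposed to a compound dose range or vehicle for 4 days, then stained with PrestoBlue for 2 h at 37 °C. Fluorescence was background-subtracted and normalized to vehicle; EC50 came from a four-parameter variable-slope fit against log concentration.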

[3] = target: T1, CBP Bromodomain (Homo sapiens, UniProt Q92793); assay: Assay 3: CBP bromodomain binding assay (TR-FRET)
T1 construct: purchased Cayman chemicals 600850
Method: Assay 3 CBP Bromodomain Binding Assay (TR-FRET)
Compounds solutions of 10 mM in DMSO were pre-diluted in DSMO to 25× stock solutions in DMSO. These were then diluted down to 4× in assay buffer. A dilution series in assay buffer was performed keeping the DMSO concentration stable. 5 μl compound in assay buffer was transferred into the assay plate (provided by assay kit) and the TR-FRET assay Cayman chemicals; 600850) was performed using the manufactor's instructions. After 1 hour incubation at room temperature in the darks, assay plates were read in a Tecan M1000 plate reader or a Tecan Spaks reader using the TR-FRET mode (top read; excitation 340 nm bandwidth […]; emission 620 nm bandwidth […]; gain optimal determined for the first well, number of flashes: 5; flash frequency 100 Hz; integration time: 500 μs, lag time: 100 μs, room temperature). The TR-FRET ratio was calculated by deviding 670 nm emission by 620 nm emission. Values were log transformed and non-linear regression with variable slope (4 parameters) was used to fit values to a dose-response curve to evaluate EC50 values.

T1 sequence (Q92793 1085-1192 limits assumed): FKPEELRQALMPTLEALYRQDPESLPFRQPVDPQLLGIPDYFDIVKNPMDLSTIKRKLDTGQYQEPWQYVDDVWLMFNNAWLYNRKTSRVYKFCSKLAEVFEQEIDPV

| Structure (SMILES) | EC50 [1] [nM] | EC50 [2] [nM] | EC50 [3] [nM] |
| --- | --- | --- | --- |
| CC(=O)N1C[C@H](c2nc(Nc3ccccc3)cc(-c3cncnc3)n2)CC[C@@H]1C (racemic) [Compound 00072, (+/−)-cis-1-(2-methyl-5-(6-(phenylamino)-[4,5′-bipyrimidin]-2-yl)piperidin-1-yl)ethan-1-one] | 200 to 1000 | 200 to 1000 | 200 to 1000 |
| CC(=O)N1C[C@H](c2nc(Nc3ccccc3)cc(-c3cncc4[nH]ccc34)n2)CC[C@@H]1C (racemic) [Compound 00073, (+/−)-c/s-1-(2-methyl-5-(4-(phenylamino)-6-(1H-pyrrolo[2,3-c]pyridin-4-yl)pyrimidin-2-yl)piperidin-1-yl)ethan-1-one] | < 200 | < 200 | < 200 |
| CC(=O)N1C[C@H](c2nc(Nc3ccncc3)cc(-c3cccnc3)n2)CC[C@@H]1C (racemic) [Compound 00101, (+/−)-c/s-1-(2-methyl-5-(4-(pyridin-3-yl)-6-(pyridin-4-ylamino)pyrimidin-2-yl)piperidin-1-yl)ethan-1-one] | 200 to 1000 |  | 200 to 1000 |
| CC(=O)N1C[C@H](c2nc(Nc3cncc(C)c3)cc(-c3cnccn3)n2)CC[C@@H]1C [Compound 00001, 1-((2S,5R)-2-methyl-5-(4-((5-methylpyridin-3-yl)amino)-6-(pyrazin-2-yl)pyrimidin-2-yl)piperidin-1-yl)ethan-1-one] | < 200 |  | < 200 |
| CC(=O)N1C[C@H](c2nc(Nc3cncc(C)c3)cc(-c3cccnc3)n2)CC[C@@H]1C [Compound 00009] | < 200 | 200 to 1000 | < 200 |
| CC(=O)N1C[C@H](c2nc(Nc3ccc4nccn4c3)cc(-c3cccnc3)n2)CC[C@@H]1C [Compound 00013, 1-((2S,5R)-5-(4-(imidazo[1,2-a]pyridin-6-ylamino)-6-(pyridin-3-yl)pyrimidin-2-yl)-2-methylpiperidin-1-yl)ethan-1-one] | 1000 to 10000 |  | 200 to 1000 |
| CC(=O)N1C[C@H](c2nc(Nc3ccc4[nH]ncc4c3)cc(-c3cccnc3)n2)CC[C@@H]1C [Compound 00030, 1-((2S,5R)-5-(4-((1H-indazol-5-yl)amino)-6-(pyridin-3-yl)pyrimidin-2-yl)-2-methylpiperidin-1-yl)ethan-1-one] | < 200 |  | 200 to 1000 |
| CC(=O)N1C[C@H](c2nc(Nc3cc(F)cc(C(=O)N(C)C)c3)cc(-c3cccnc3)n2)CC[C@@H]1C [Compound 00038, 3-((2-((3R,6S)-1-acetyl-6-methylpiperidin-3-yl)-6-(pyridin3-yl)pyrimidin-4-yl)amino)-5-fluoro-N,N-dimethylbenzamide] | 200 to 1000 |  | 200 to 1000 |
| CC(=O)N1C[C@H](c2nc(Nc3cccc(C(F)F)c3)cc(-c3cccnc3)n2)CC[C@@H]1C [Compound 00039, 1-((2S,5R)-5-(4-((3-(difluoromethyl)phenyl)amino)-6-(pyridin-3-yl)pyrimidin-2-yl)-2-methylpiperidin-1-yl)ethan1-one] | < 200 | < 200 | 200 to 1000 |
| CC(=O)N1C[C@H](c2nc(Nc3cc(F)c4cn[nH]c4c3)cc(-c3cccnc3)n2)CC[C@@H]1C [Compound 00040, 1-((2S,5R)-5-(4-((4-fluoro-1H-indazol-6-yl)amino)-6-(pyridin-3-yl)pyrimidin-2-yl)-2-methylpiperidin-1-yl)ethan-1-one] | < 200 |  | < 200 |
| CNC(=O)c1cc(F)cc(Nc2cc(-c3cccnc3)nc([C@@H]3CC[C@H](C)N(C(C)=O)C3)n2)c1 [Compound 00041, 3-((2-((3R,6S)-1-acetyl-6-methylpiperidin-3-yl)-6-(pyridin-3-yl)pyrimidin-4-yl)amino)-5-fluoro-N-methylbenzamide] | < 200 | < 200 | < 200 |
| CC(=O)N1C[C@H](c2nc(Nc3cccc4[nH]ncc34)cc(-c3cccnc3)n2)CC[C@@H]1C [Compound 00042, 1-((2S,5R)-5-(4-((1H-indazol-4-yl)amino)-6-(pyridin-3-yl)pyrimidin-2-yl)-2-methylpiperidin-1-yl)ethan-1-one] | < 200 |  | 200 to 1000 |
| CC(=O)N1C[C@H](c2nc(Nc3cc(F)cc(-c4cnn(C)c4)c3)cc(-c3cccnc3)n2)CC[C@@H]1C [Compound 00043, 1-((2S,5R)-5-(4-((3-fluoro-5-(1-methyl-1H-pyrazol-4-yl)phenyl)amino)-6-(pyridin-3-yl)pyrimidin-2-yl)-2-methylpiperidin-1-yl)ethan-1-one] | < 200 |  | < 200 |
| CC(=O)N1C[C@H](c2nc(Nc3cccc(-c4cnn(C)c4)c3)cc(-c3cccnc3)n2)CC[C@@H]1C [Compound 00044, 1-((2S,5R)-2-methyl-5-(4-((3-(1-methyl-1H-pyrazol-4-yl)phenyl)amino)-6-(pyridin-3-yl)pyrimidin-2-yl)piperidin-1-yl)ethan-1-one] | < 200 | < 200 | < 200 |
| CC(=O)N1C[C@H](c2nc(Nc3cccc4nn(C)cc34)cc(-c3cccnc3)n2)CC[C@@H]1C [Compound 00045, 1-((2S,5R)-2-methyl-5-(4-((2-methyl-2H-indazol-4-yl)amino)-6-(pyridin-3-yl)pyrimidin-2-yl)piperidin-1-yl)ethan-1-one] | < 200 | 200 to 1000 | < 200 |
| CC(=O)N1C[C@H](c2nc(Nc3cc(F)cc(-c4cnoc4)c3)cc(-c3cccnc3)n2)CC[C@@H]1C [Compound 00046, 1-((2S,5R)-5-(4-((3-fluoro-5-(isoxazol-4-yl)phenyl)amino)-6-(pyridin-3-yl)pyrimidin-2-yl)-2-methylpiperidin-1-yl)ethan-1-one] | < 200 |  | < 200 |
| CC(=O)N1C[C@H](c2nc(Nc3cccc(-c4cn(C)nn4)c3)cc(-c3cccnc3)n2)CC[C@@H]1C [Compound 00053, 1-((2S,5R)-2-methyl-5-(4-((3-(1-methyl-1H-1,2,3-triazol-4-yl)phenyl)amino)-6-(pyridin-3-yl)pyrimidin-2-yl)piperidin-1-yl)ethan-1-one] | < 200 | < 200 | 1000 to 10000 |
| CC(=O)N1C[C@H](c2nc(Nc3cccc(-c4cnn(C)c4)c3)cc(-c3cnccn3)n2)CC[C@@H]1C [Compound 00065, 1-((2S,5R)-2-methyl-5-(4-((3-(1-methyl-1H-pyrazol-4-yl)phenyl)amino)-6-(pyrazin-2-yl)pyrimidin-2-yl)piperidin-1-yl)ethan-1-one] | < 200 | < 200 | < 200 |
| CC(=O)N1C[C@H](c2nc(Nc3ccnc(C)c3)cc(-c3cnccn3)n2)CC[C@@H]1C [Compound 00126, 1-((2S,5R)-2-methyl-5-(4-((2-methylpyridin-4-yl)amino)-6-(pyrazin-2-yl)pyrimidin-2-yl)piperidin-1-yl)ethan-1-one] |  |  | < 200 |
| CC(=O)N1C[C@H](c2nc(Nc3ccnc(-c4cnn(C5CCOCC5)c4)c3)cc(-c3cccnc3)n2)CC[C@@H]1C [Compound 00159, 1-((2S-5R)-2-methyl-5-(4-(pyridin-3-yl)-6-((2-(1-(tetrahydro-2H-pyran-4-yl)-1H-pyrazol-4-yl)pyridin-4-yl)amino)pyrimidin-2-yl)piperidin-1-yl)ethan-1-one] | < 200 | < 200 |  |
| COCCn1cc(-c2cc(Nc3cc(-c4cccnc4)nc([C@@H]4CC[C@H](C)N(C(C)=O)C4)n3)ccn2)cn1 [Compound 00160, 1-((2S,5R)-5-(4-((2-(1-(2-methoxyethyl)-1H-pyrazol-4-yl)pyridin-4-yl)amino)-6-(pyridin-3-yl)pyrimidin-2-yl)-2-methylpiperidin-1-yl)ethan-1-one] | 200 to 1000 | 200 to 1000 |  |
| CC(=O)N1C[C@H](c2nc(Nc3cc(C)nc(-c4cnn(C)c4)c3)cc(-c3cccnc3)n2)CC[C@@H]1C [Compound 00161, 1-((2S,5R)-2-methyl-5-(4-((2-methyl-6-(1-methyl-1H-pyrazol-4-yl)pyridin-4-yl)amino)-6-(pyridin-3-yl)pyrimidin-2-yl)piperidin-1-yl)ethan-1-one] | < 200 | < 200 |  |
| CC(=O)N1C[C@H](c2nc(Nc3ccccc3)cc(-n3cnc(C)c3)n2)CC[C@@H]1C [Compound 00163, 1-((2S,5R)-2-methyl-5-(4-(4-methyl-1H-imidazol-1-yl)-6-(phenylamino)pyrimidin-2-yl)piperidin-1-yl)ethan-1-one] | 1000 to 10000 |  | 1000 to 10000 |
| C[C@H]1CC[C@@H](c2nc(Nc3cccc(F)c3)cc(-c3cccnc3)n2)CN1C(N)=O [Compound 00165, (2S,5R)-5-(4-((3-fluorophenyl)amino)-6-(pyridin-3-yl)pyrimidin-2-yl)-2-methylpiperidine-1-carboxamide] | 1000 to 10000 |  | 1000 to 10000 |
| CC(=O)N1C[C@H](c2nc(-c3cnccn3)cc(N(C)c3ccnc(C)c3)n2)CC[C@@H]1C [Compound 00167, 1-((2S,5R)-2-methyl-5-(4-(methyl(2-methylpyridin-4-yl)amino)-6-(pyrazin-2-yl)pyrimidin-2-yl)piperidin-1-yl)ethan-1-one] | 200 to 1000 | 1000 to 10000 |  |
